“Also recorded” adds a separate entry of the source.
Experiments:
[1] = tested on: primary AML patient samples; experiment: Colony forming assay; format: cell-based, human; conditions: six primary patient samples
Procedure: Cryopreserved human AML patient samples were thawed and washed twice with RPMI 1640 supplemented with 2% heat inactivated fetal bovine serum (FBS). After washes, cells were cultured in triplicate in 12-well plates at a density of 0.1 to 2×10^5 cells per well in Human Methylcellulose Complete Media (#HSC003R&D Systems, Minneapolis, Minnesota, United States of America). Plating densities were selected for each case to yield colony outgrowth of 20-100 colonies per well. The desired cell number and dose of SACLAC or DMSO was added to the culture media and dispensed to multi-well plates. Colonies were propagated for 10-14 days and blast colonies (>20 cells) were counted in a blinded manner under the light microscope.

[2] = tested on: OCI-AML2 cells; experiment: Apoptosis by flow cytometry (Annexin V); format: cell-based, human; conditions: SACLAC 5 μM
Procedure: (§1) Apoptosis in cell lines was assessed after treating 2.5×10^5 cells per ml with drug or vehicle in a 48-well plate for the indicated time points and doses. Primary human AML cells were pre-incubated with SFEM for 48 hours before plating 2×10^5 cells in 24-well plates for the indicated times point and doses. Samples were stained using the Muse Annexin V & Dead Cell Kit (Millipore #MCH100105). Change in mitochondrial membrane potential in cell lines was measured with the Muse® MitoPotential Kit (#MCH100110, MilliporeSigma, Burlington, Mass., United States of America). Caspase activation was measured using the Muse® Caspase 3/7 Assay Kit (#MCH100108, MilliporeSigma, Burlington, Mass., United States of America). For rescue experiments, cells were plated at 2.5×10^4 well in a 96-well plate 24 hours after electroporation. Cells were treated with DMSO or SACLAC for 48 hours and apoptosis was detected as stated above. All kits were used according to manufacturer's protocol. Cells were then analyzed using the Muse® Cell Analyzer (MilliporeSigma, Burlington, Massachusetts, United States of America) (35,36). Experiments included positive and negative controls for proper analysis.

[3] = tested on: KG1a cells; experiment: Rescue from SACLAC-induced apoptosis by Mcl-1S knockdown; format: cell-based, human; conditions: 10 μM SACLAC 48 hours; siRNA (100 nM) targeting MCL-1S vs scrambled
Procedure: as §1, with “analysis. […]” for “analysis.”

[4] = tested on: human MV4-11 AML cells; experiment: MV4-11 AML xenograft model in NSG mice; format: in vivo
Procedure: (§2) MV4-11 AML cells expressing luciferase (luc2) and YFP (39) or U937 AML cells expressing luc2 and tdTomato (#72486, Addgene, Watertown, Mass., United States of America) were used to investigate the efficacy of SACLAC in NOD-scid […] (NSG) mice (Jackson Laboratories, Bar Harbor, Me., United States of America). Maximum tolerated dose and pharmacokinetic studies were also performed to determine safety and delivery of compound.
(§3) To assess the efficacy of SACLAC in a transplantable human AML model, two cell line models were used. For the MV4-11 model, 2.5×10^6 luciferase and yellow fluorescent protein (YFP)-expressing MV4-11 cells in HBSS were introduced into 6- to 8-week-old female NSG mice via tail-vein injections. After 10-12 days, engraftment was confirmed using bioluminescence imaging with the IVIS Lumina LT Series III imaging system (PerkinElmer Inc., Waltham, Mass., United States of America). Mice were equally randomized into two groups of three mice and treated with vehicle or SACLAC at 5 mg/kg/day five times per week for 18 total injections. At the end of the treatment, animals were euthanized and peripheral blood was collected for flow cytometry analysis.
(§4) Red blood cells (RBC) were lysed with RBC Lysis Buffer (#420301, BioLegend, San Diego, Calif., United States of America) followed by cell surface staining with anti-human CD45 antibodies (#304014, clone HI30, BioLegend, San Diego, Calif., United States of America) and 7AAD (#420404, BioLegend, San Diego, Calif., United States of America) to detect viable human white blood cells (WBC) using an LSR II flow cytometer and BD FACS Diva software. Viable cells were identified by gating on 7AAD-negative cells gated from singlets (SSC-A and FSC-W scales), after excluding the debris (SSC-A and FSC-A scales). Percentage of YFP, tdTomato or hCD45 positive cells was determined in FlowJo software (Becton Dickinson, Franklin Lakes, N.J., United States of America). All animal studies were performed with IACUC approval.

[5] = tested on: U937 AML cells; experiment: U937 AML xenograft model in NSG mice; format: in vivo; conditions: 5 mg/kg tail-vein, five times per week, 15 injections
Procedure: as §2
For the U937 model, 1×10^4 luciferase and tdTomato-expressing U937 cells in […] were introduced into 6- to 8-week-old female NSG mice via tail-vein injections. After six days, engraftment was confirmed as stated above. Mice were equally randomized into two groups of five mice and treated with vehicle or SACLAC at 5 mg/kg/day five times per week for 15 total injections. […]
as §4, with “Viable cells were identified by gating on 7AAD-negative cells gated from singlets (SSC-A and FSC-W scales), after excluding the debris (SSC-A and FSC-A scales).” left out, “All animal studies were performed with IACUC approval.” left out

[6] = tested on: two human AML xenograft mouse models; experiment: Leukemic burden across two human AML xenograft mouse models; format: in vivo
Text: as §3
For the U937 model, 1×10^4 luciferase and tdTomato-expressing U937 cells in […] were introduced into 6- to 8-week-old female NSG mice via tail-vein injections. After six days, engraftment was confirmed as stated above. Mice were equally randomized into two groups of five mice and treated with vehicle or SACLAC at 5 mg/kg/day five times per week for 15 total injections. Animals were euthanized and bone marrow was collected for flow cytometry analysis.

[7] = Mouse serum SACLAC levels by formulation and route; format: in vivo
Procedure: More particularly, SACLAC was dissolved in 2-hydroxypropyl-β-cyclodextrin (β-HPCD) (53). In addition, a SACLAC nanoliposome was prepared.

CCCCCCCCCCCCCCC[C@@H](O)[C@H](CO)NC(=O)CCl [SACLAC, N-[(2S,3R)-1,3-dihydroxyoctadecan-2-yl]2-chloroacetamide]
colony formation decreased (average) ([1]; 5 μM): 32%
colony formation decreased (average) ([1]; 20 μM): 69%
apoptosis ([2]; 12 hours): 79%
apoptosis ([2]; 24 hours): nearly all cells undergoing apoptosis
apoptosis induction reduced by, in Mcl-1S knockdown cells [3]: 36%
toxicity in treated animals ([4]; 5 mg/kg i.v. in β-HPCD): No overt toxicity; also recorded: non-toxic
body weight of treated animals ([4]; 5 mg/kg i.v. in β-HPCD, course of the study): weight gain; also recorded: did not lose weight
decrease in leukemic burden (circulating leukemic cells in blood) ([4]; 5 mg/kg tail-vein, five times per week, 18 injections): ~75%
reduction in leukemic cells in the bone marrow [5]: up to 50%
reduction in leukemic burden [6]: 37 to 75%
clearance ([7]; all treatment groups): rapidly cleared
serum levels ([7]; free SACLAC in DMSO, i.p.): low serum levels
maximum serum level ([7]; maximum over the formulations tested): ~1 µM
serum levels ([7]; β-HPCD, i.v.): improvement

— patent US20220387358A1, “CERAMIDE ANALOG SACLAC MODULATES SPHINGOLIPID LEVELS AND MCL-1 SPLICING TO INDUCE APOPTOSIS IN ACUTE MYELOID LEUKEMIA” (University of Virginia Patent Foundation, priority 2019, published 2022)
